Laboratory results as given in PubChem BioAssay AID1963962 (Molecular Pharmacology Branch, DTP, NCI, 2024).

Tested on: 967376-340-R-J2-PDC multicell spheroid viability
Assay: Anticancer human tumor 967376-340-R-J2-PDC patient-derived colon adenocarcinoma cell line growth inhibition [PI3K]
Details: for IC50: curve of first compound; for viability, T/C: stronger effect = lower value
Text: Combinatorial screen of targeted agents with the PI3K inhibitors inavolisib, alpelisib, duvelisib, and copanlisib in multi-cell type tumor spheroids
A high-throughput screen of multi-cell type tumor spheroids was designed to identify active combinations of targeted small molecules and PI3K pathway inhibitors. Complex spheroids include a stromal component modeled by human endothelial cells (HUVEC) and fibroblasts modeled by human mesenchymal stem cells (MSCs). The concentration ranges selected for each drug and investigational agent were based upon clinically achievable concentrations if the clinical Cmax of the agent was known.
Compounds. The drugs and investigational agents: inavolisib (NSC800729), alpelisib (NSC765974), duvelisib (NSC772469), copanlisib (NSC816437), ipatasertib (NSC767898), afuresertib (NSC778305), talazoparib (NSC767125), sapanisertib (NSC764658), selumetinib (NSC741078), tovorafenib (DAY101, NSC766906), vemurafenib (NSC761431), ravoxertinib (NSC781343), sotorasib (NSC818433), MRTX1133 (NSC 836407), abemaciclib (NSC 768073), palbociclib (NSC758247), venetoclax (NSC 766270), SY5609 (NSC837396), enzalutamide (NSC755605), and darolutamide (NSC825331), were obtained from the National Cancer Institute (NCI) Developmental Therapeutics Program Chemical Repository. The FDA-approved anticancer drug set is available from the NCI Developmental Therapeutics Program. […] The stock solutions were prepared in dimethyl sulfoxide (DMSO, Sigma-Aldrich, St. Louis, MO, cat. D2650) at 800-fold the tested concentration and stored at -70 degrees C prior to their use. All drugs and investigational agents were tested over a range starting from a high concentration at or near the clinical Cmax and decreasing in half-log increments. If the clinical Cmax for an agent had not been determined, the highest concentration tested was 10 microM.
Cell Culture. All cells were maintained in an incubator at 37 degrees C and 5% CO2 with 95% humidity. The PDC lines were cultured according to standard operating procedures established by the NCI PDMR (https://pdmr.cancer.gov/sops/default.htm). All PDCs were thawed and cultured in Matrigel-coated flasks prepared with a working solution of 1X Ham's F-12 nutrient mix, without supplementation (Invitrogen, Waltham, MA, cat. 11765054), 100 U/mL penicillin-streptomycin (Invitrogen, cat. 15140122), and 2.5% Matrigel (Corning Inc., Corning, NY, cat. 354248) for the first three passages. The 354836-022-R-J1-PDC, 475296-252-R-J1-PDC, and 997726-040-R-J2-PDC lines were cultured in 6A media, which includes advanced DMEM/F-12 (Thermo Fisher Scientific, cat. 12634028), 10 mM HEPES (Thermo Fisher Scientific, cat. 15630080), 1X GlutaMAX supplement (Thermo Fisher Scientific, cat. 35050061), 0.1 mg/mL primocin (InvivoGen, San Diego, CA, cat. ant-pm-2), 10% defined fetal bovine serum, heat inactivated (HyClone Laboratories Inc., Logan, UT, cat. SH30070.03HI), 50% L-WRN conditioned media (ATCC, cat. CRL-3276), 1.25 mM N-Acetyl-L-cysteine (Sigma-Aldrich, cat. A9165), 10 mM nicotinamide (Sigma-Aldrich, cat. N0636), 1X B-27 supplement (Thermo Fisher Scientific, cat. 17504044), 1X N-2 supplement (Thermo Fisher Scientific, cat. 17502048), and 10 microM Y-27632 dihydrochloride (Tocris Bioscience, Bristol, United Kingdom, cat. 1254). The 624824-186-R-J2-PDC line was cultured in 6C/Colon 1B media, which includes all 6A media components plus 50 ng/mL human EGF recombinant protein (Thermo Fisher Scientific, cat. PHG0311). […]
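Further: spheroids exposed to agents for 7 days before read-out.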
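Wherever viability, T/C is given: luminescence used as surrogate of cell viability.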

Structure (SMILES): CC(C)n1nc(-c2ccc3oc(N)nc3c2)c2c(N)ncnc21 + CC(Nc1ccc2c(c1)OCCn1cc(N3C(=O)OCC3C(F)F)nc1-2)C(N)=O
- IC50 (second compound 0.00316 µM): > 100 nM
- IC50 (second compound 0.01 µM): > 100 nM
- IC50 (second compound 0.0316 µM): 71.9 nM
- IC50 (second compound 0.1 µM): 66.5 nM
- IC50 (second compound 0.316 µM): 20.7 nM
- IC50 (second compound 1 µM): 36.9 nM
- viability, T/C (second compound 0.00316 µM, first compound 0.000316 µM): 82.3%
- viability, T/C (second compound 0.00316 µM, first compound 0.001 µM): 69.7%
- viability, T/C (second compound 0.00316 µM, first compound 0.00316 µM): 69.4%
- viability, T/C (second compound 0.00316 µM, first compound 0.01 µM): 76.4%
- viability, T/C (second compound 0.00316 µM, first compound 0.0316 µM): 73.1%
- viability, T/C (second compound 0.00316 µM, first compound 0.1 µM): 51.9%
- viability, T/C (second compound 0.01 µM, first compound 0.000316 µM): 106%
- viability, T/C (second compound 0.01 µM, first compound 0.001 µM): 90.1%
- viability, T/C (second compound 0.01 µM, first compound 0.00316 µM): 67.3%
- viability, T/C (second compound 0.01 µM, first compound 0.01 µM): 68.7%
- viability, T/C (second compound 0.01 µM, first compound 0.0316 µM): 68.1%
- viability, T/C (second compound 0.01 µM, first compound 0.1 µM): 43.3%
- viability, T/C (second compound 0.0316 µM, first compound 0.000316 µM): 81.1%
- viability, T/C (second compound 0.0316 µM, first compound 0.001 µM): 87%
- viability, T/C (second compound 0.0316 µM, first compound 0.00316 µM): 65.4%
- viability, T/C (second compound 0.0316 µM, first compound 0.01 µM): 74.4%
- viability, T/C (second compound 0.0316 µM, first compound 0.0316 µM): 60.5%
- viability, T/C (second compound 0.0316 µM, first compound 0.1 µM): 45.2%
- viability, T/C (second compound 0.1 µM, first compound 0.000316 µM): 67.3%
- viability, T/C (second compound 0.1 µM, first compound 0.001 µM): 79.8%
- viability, T/C (second compound 0.1 µM, first compound 0.00316 µM): 91.5%
- viability, T/C (second compound 0.1 µM, first compound 0.01 µM): 69.5%
- viability, T/C (second compound 0.1 µM, first compound 0.0316 µM): 56.9%
- viability, T/C (second compound 0.1 µM, first compound 0.1 µM): 46.3%
- viability, T/C (second compound 0.316 µM, first compound 0.000316 µM): 57.7%
- viability, T/C (second compound 0.316 µM, first compound 0.001 µM): 61.9%
- viability, T/C (second compound 0.316 µM, first compound 0.00316 µM): 54.6%
- viability, T/C (second compound 0.316 µM, first compound 0.01 µM): 64.7%
- viability, T/C (second compound 0.316 µM, first compound 0.0316 µM): 44.3%
- viability, T/C (second compound 0.316 µM, first compound 0.1 µM): 33.1%
- viability, T/C (second compound 1 µM, first compound 0.000316 µM): 53.9%
- viability, T/C (second compound 1 µM, first compound 0.001 µM): 54.8%
- viability, T/C (second compound 1 µM, first compound 0.00316 µM): 63.8%
- viability, T/C (second compound 1 µM, first compound 0.01 µM): 47.5%
- viability, T/C (second compound 1 µM, first compound 0.0316 µM): 54%
- viability, T/C (second compound 1 µM, first compound 0.1 µM): 38.4%
